From patent US12662489B2 (Sitryx Therapeutics Limited, priority 2023, dated 2026)

Tests used:
[1] = target: T1, MTHFD1 recombinant human enzyme (Homo sapiens, UniProt P11586); assay: MTHFD1 inhibition assay (NAD(P)H-Glo luminescence); settings: MTHFD1 IC50, recombinant human enzyme 200 nM, NADP, band
T1 sequence (P11586 2-291 limits assumed): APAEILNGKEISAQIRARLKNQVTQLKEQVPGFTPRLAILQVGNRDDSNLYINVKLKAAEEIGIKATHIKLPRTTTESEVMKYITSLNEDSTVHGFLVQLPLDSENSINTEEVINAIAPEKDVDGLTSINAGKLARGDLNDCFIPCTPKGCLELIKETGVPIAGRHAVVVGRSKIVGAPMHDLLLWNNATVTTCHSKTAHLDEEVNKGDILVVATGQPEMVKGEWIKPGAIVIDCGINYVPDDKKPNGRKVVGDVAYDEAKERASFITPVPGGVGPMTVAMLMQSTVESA

[2] = target: T2, MTHFD2 recombinant human enzyme (Homo sapiens, UniProt P13995); assay: MTHFD2 inhibition assay (NAD(P)H-Glo luminescence); settings: for MTHFD1/MTHFD2 IC50 ratio: selectivity of MTHFD2 inhibition over MTHFD1, band
T2 sequence (P13995 36-350): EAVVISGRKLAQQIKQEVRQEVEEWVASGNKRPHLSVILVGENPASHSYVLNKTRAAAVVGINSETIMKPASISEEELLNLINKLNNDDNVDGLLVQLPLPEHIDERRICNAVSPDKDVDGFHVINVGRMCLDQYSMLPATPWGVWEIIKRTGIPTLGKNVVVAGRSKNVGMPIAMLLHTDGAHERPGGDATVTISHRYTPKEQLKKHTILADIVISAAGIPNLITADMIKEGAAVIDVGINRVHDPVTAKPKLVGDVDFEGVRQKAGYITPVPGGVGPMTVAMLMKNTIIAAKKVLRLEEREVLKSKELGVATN

human CD4+ T cells = assay: Human CD4+ T-cell proliferation assay (CFSE, CD3/28 beads); settings: read-out: Proliferation IC50
Protocol: Cells were incubated at room temperature for 8 minutes in a rotator in the dark. 13 mL cRPMI was added to each tube and cells were centrifuged at 500×g for 4 minutes at room temperature before pellets were resuspended in 10 mL cRPMI. Cells were counted using the Auto2000 Cellometer and AO/PI viability stain and concentration adjusted to 0.6×10^6 cells/mL in cRPMI. […] Control wells were included for flow cytometry and edge wells were filled with 200 μL 1×dPBS. Cells were incubated at 37° C., 5% CO2 for 2 days before compound treatment. […] Cells were incubated at 37° C., 5% CO2 for a further 2 days prior to flow staining and supernatant harvest.
On the final day plates were centrifuged at 500×g for 4 minutes at room temperature. 125 μL of supernatants were transferred to a V bottom 96 well polystyrene plate and stored at −80° C. Plates were gently vortexed to disrupt the cell pellets before 125 μL 1×PBS was added to each well. Plates were centrifuged at 500×g for 4 minutes at room temperature and supernatants removed from the plates by aspirating. Plates were gently vortexed and 30 μL of live/dead stain (Invitrogen, L34975) in 1×dPBS was added and incubated for 15 minutes in the dark at 4° C. […] 100 μL of flow cytometry buffer was added and plates were centrifuged at 500×g for 4 minutes before supernatants were aspirated from the plates. Wells were resuspended in 200 μL flow cytometry buffer and plates stored at 4° C. before being run on the flow cytometer.
Data was analysed using FlowJo and the compensation matrix applied to all samples. The gates were set using unstained and unstimulated samples.

Row | IC50 [1] | IC50 [2] | MTHFD1/MTHFD2 IC50 ratio [2] | Compound | IC50 (human CD4+ T cells)
1 | 1000 to 5000 nM | 1 to 10 nM | J (>30) | COC[C@H]1CN(c2cc(Cl)c3c4c(c(=O)oc3c2C)CN(C(=O)c2cc(OC)c(C(=O)NS(=O)(=O)N3CCCC3)cc2F)CC4)CCN1C [Example 262, (R)-4-(10-chloro-8-(3-(methoxymethyl)-4-methylpiperazin-1-yl)-7-methyl-5-oxo-1,3,4,5-tetrahydro-2H-chromeno[3,4-c]pyridine-3-carbonyl)-5-fluoro-2-methoxy-N-(pyrrolidin-1-ylsulfonyl)benzamide] | 30 to 100 nM
2 | 100 to 1000 nM | 1 to 10 nM | J (>30) | [2H]C([2H])([2H])Oc1cc(C(=O)N2CCc3c(c(=O)oc4c(C)c(N5CCN(C)[C@@H](COC)C5)cc(C)c34)C2)c(F)cc1C(=O)NS(=O)(=O)N1CC2CC2C1 (stereo partly drawn) [Example 251, N-((3-azabicyclo[3.1.0]hexan-3-yl)sulfonyl)-5-fluoro-2-(methoxy-d3)-4-(8-((R)-3-(methoxymethyl)-4-methylpiperazin-1-yl)-7,10-dimethyl-5-oxo-1,3,4,5-tetrahydro-2H-chromeno[3,4-c]pyridine-3-carbonyl)benzamide] | 30 to 100 nM
3 | 100 to 1000 nM | 1 to 10 nM | J (>30) | CCOc1cc(C(=O)N2CCc3c(c(=O)oc4c(C)c(N5CCN(C)[C@@H](COC)C5)cc(C)c34)C2)c(F)cc1C(=O)NS(=O)(=O)N1CC[C@H](F)C1 [Example 268, 2-ethoxy-5-fluoro-N-(((S)-3-fluoropyrrolidin-1-yl)sulfonyl)-4-(8-((R)-3-(methoxymethyl)-4-methylpiperazin-1-yl)-7,10-dimethyl-5-oxo-1,3,4,5-tetrahydro-2H-chromeno[3,4-c]pyridine-3-carbonyl)benzamide] | 1 to 10 nM
4 | 10 to 100 nM | 1 to 10 nM | J (>30) | COC[C@H]1CN(c2cc(C)c3c4c(c(=O)oc3c2C)CN(C(=O)c2cc(OC3CC3)c(C(=O)NS(=O)(=O)N3CC5CC5C3)cc2F)CC4)CCN1C (stereo partly drawn) [Example 264, N-((3-azabicyclo[3.1.0]hexan-3-yl)sulfonyl)-2-cyclopropoxy-5-fluoro-4-(8-((R)-3-(methoxymethyl)-4-methylpiperazin-1-yl)-7,10-dimethyl-5-oxo-1,3,4,5-tetrahydro-2H-chromeno[3,4-c]pyridine-3-carbonyl)benzamide] | 10 to 30 nM
5 | 1000 to 5000 nM | 10 to 100 nM | H (>9.0 to 30) | COC[C@H]1CN(c2cc(C)c3c4c(c(=O)oc3c2C)CN(C(=O)c2cc(OC3CCCC3)c(C(=O)NS(=O)(=O)C3(C)CC3)c(C(F)(F)F)c2)CC4)CCN1C [Example 128, (R)-2-(cyclopentyloxy)-4-(8-(3-(methoxymethyl)-4-methylpiperazin-1-yl)-7,10-dimethyl-5-oxo-1,3,4,5-tetrahydro-2H-chromeno[3,4-c]pyridine-3-carbonyl)-N-((1-methylcyclopropyl)sulfonyl)-6-(trifluoromethyl)benzamide] | 1000 to 5000 nM
6 | 100 to 1000 nM | 1 to 10 nM | J (>30) | COC[C@H]1CN(c2cc(C)c3c4c(c(=O)oc3c2C)CN(C(=O)c2cc(N(C)C)c(C(=O)NS(=O)(=O)N3CC[C@H](F)C3)cc2F)CC4)CCN1C [Example 254, 2-(dimethylamino)-5-fluoro-N-(((S)-3-fluoropyrrolidin-1-yl)sulfonyl)-4-(8-((R)-3-(methoxymethyl)-4-methylpiperazin-1-yl)-7,10-dimethyl-5-oxo-1,3,4,5-tetrahydro-2H-chromeno[3,4-c]pyridine-3-carbonyl)benzamide] | 10 to 30 nM
7 | 100 to 1000 nM | 1 to 10 nM | J (>30) | COC[C@H]1CN(c2cc(C)c3c4c(c(=O)oc3c2C)CN(C(=O)c2cc(N(C)C)c(C(=O)NS(=O)(=O)N3CCC[C@H]3COC)cc2F)CC4)CCN1C [Example 312, 2-(dimethylamino)-5-fluoro-4-(8-((R)-3-(methoxymethyl)-4-methylpiperazin-1-yl)-7,10-dimethyl-5-oxo-1,3,4,5-tetrahydro-2H-chromeno[3,4-c]pyridine-3-carbonyl)-N-(((S)-2-(methoxymethyl)pyrrolidin-1-yl)sulfonyl)benzamide] | 10 to 30 nM
8 | 1000 to 5000 nM | 10 to 100 nM | J (>30) | COC[C@H]1CN(c2cc(Cl)c3c4c(c(=O)oc3c2C)CN(C(=O)c2cc(F)c(C(=O)NS(=O)(=O)N3CCCC3)cc2C)CC4)CCN1C [Example 310, (R)-4-(10-chloro-8-(3-(methoxymethyl)-4-methylpiperazin-1-yl)-7-methyl-5-oxo-1,3,4,5-tetrahydro-2H-chromeno[3,4-c]pyridine-3-carbonyl)-2-fluoro-5-methyl-N-(pyrrolidin-1-ylsulfonyl)benzamide] | 30 to 100 nM
9 | 1000 to 5000 nM | 10 to 100 nM | J (>30) | COC[C@H]1CN(c2cc(C)c3c4c(c(=O)oc3c2C)CN(C(=O)c2ccc(C(=O)NS(=O)(=O)N3C[C@H]5CCC[C@H]5C3)cc2)CC4)CCN1C [Example 210, N-(((3aR,6a S)-hexahydrocyclopenta[c]pyrrol-2(1H)-yl)sulfonyl)-4-(8-((R)-3-(methoxymethyl)-4-methylpiperazin-1-yl)-7,10-dimethyl-5-oxo-1,3,4,5-tetrahydro-2H-chromeno[3,4-c]pyridine-3-carbonyl)benzamide] | > 5000 nM

Row | Compound | IC50 [1] | IC50 [2] | MTHFD1/MTHFD2 IC50 ratio [2] | IC50 (human CD4+ T cells)
10 | CCOc1cc(C(=O)N2CCc3c(c(=O)oc4c(C)c(N5CCN(C)[C@@H](COC)C5)cc(C)c34)C2)c(F)cc1C(=O)NS(=O)(=O)N1C2CCC1CC2 [Example 218, (R)-N-((7-azabicyclo[2.2.1]heptan-7-yl)sulfonyl)-2-ethoxy-5-fluoro-4-(8-(3-(methoxymethyl)-4-methylpiperazin-1-yl)-7,10-dimethyl-5-oxo-1,3,4,5-tetrahydro-2H-chromeno[3,4-c]pyridine-3-carbonyl)benzamide] | 100 to 1000 nM | 10 to 100 nM | H (>9.0 to 30) | 30 to 100 nM
11 | COC[C@H]1CN(c2cc(C)c3c4c(c(=O)oc3c2C)CN(C(=O)c2cc(N(C)C)c(C(=O)NS(=O)(=O)N3C5CCC3COC5)cc2F)CC4)CCN1C [Example 256, N-((3-oxa-8-azabicyclo[3.2.1]octan-8-yl)sulfonyl)-2-(dimethylamino)-5-fluoro-4-(8-((R)-3-(methoxymethyl)-4-methylpiperazin-1-yl)-7,10-dimethyl-5-oxo-1,3,4,5-tetrahydro-2H-chromeno[3,4-c]pyridine-3-carbonyl)benzamide] | 1000 to 5000 nM | 1 to 10 nM | J (>30) | 10 to 30 nM
12 | COC[C@H]1CN(c2cc(C)c3c4c(c(=O)oc3c2C)CN(C(=O)c2cc(OC)c(C(=O)NS(=O)(=O)N3C5CCC3CC5)cc2F)CC4)CCN1C [Example 248, (R)-N-((7-azabicyclo[2.2.1]heptan-7-yl)sulfonyl)-5-fluoro-2-methoxy-4-(8-(3-(methoxymethyl)-4-methylpiperazin-1-yl)-7,10-dimethyl-5-oxo-1,3,4,5-tetrahydro-2H-chromeno[3,4-c]pyridine-3-carbonyl)benzamide] | 100 to 1000 nM | 1 to 10 nM | J (>30) | 30 to 100 nM
